Data published in patent US9078868B2, “Therapeutic agent for accelerating recovery of animal under medical treatment” (UNIVERSITY OF MIYAZAKI, priority 2010, dated 2015).
No end group written: not given here. *: point of attachment. Octanoyl = CCCCCCCC(=O)*

Assays:
[1] = tested on: animals with poor physical conditions, surgery or no surgery; test: Example 3-2: improvement after ghrelin in animals which had or had not undergone a surgery; type: in vivo, canines and felines; details: dash = no significant difference
Protocol: A canine-derived ghrelin was repeatedly administered intravenously or subcutaneously to each of the animals with poor physical conditions. The dose of intravenous administration was approximately 5 μg/kg or 10 μg/kg, and the dose of subcutaneous administration was approximately 100 μg/kg. The mean number of doses in repeated administration was approximately four times, and the maximum number of doses was 11 times. The administration period was one to six days.
Evaluation parameters evaluated before and after administration of ghrelin were appetite, quantity of meal, biochemical test values (GOT, GPT, BUN, CRE, CPK, CRP), blood cell test values (white blood cell [WBC], platelet [PLT]), body temperature, activity (vigor), skin, coat, wellness, the degree of anger or anxiety, respiratory rate, and others. These parameters were analyzed together with the results of the animals receiving a single dose (Examples 1 and 2). The analysis results were compiled by disease, such as renal dysfunction, tumor, fracture, and accident (see Table 3-1). Statistical analysis of values before and after administration was performed using a paired t-test.
Ghrelin was administered to animals with poor physical conditions after surgery for the treatment of various pathological conditions, and various parameters indicating physical conditions before and after administration of ghrelin were analyzed. The surgery included urethroplasty, surgery for a fracture, luxation, disc hernia, or diaphragmatic hernia, surgical removal of a tumor, and surgical removal of a reproductive organ due to pyometra.
Meanwhile, ghrelin was administered to animals with poor physical conditions due to various pathological conditions which had not undergone a surgery, and various parameters indicating physical conditions before and after administration of ghrelin were analyzed. The pathological conditions included filariasis, mite infestation, babesiosis, hemobartonellosis, bite, and dermatitis.

[2] = tested on: animals which did not ingest food after administration of ghrelin; test: Example 4: improvement in animals which did not ingest food after administration of ghrelin; type: in vivo, canines and felines
From the text: Diseases: Rib fracture, chronic renal failure, falling accident, infectious respiratory syndrome, hemobartonellosis, FIV, FELV infection, CPV infection, habu bite, diarrhea, vomiting, mammary gland tumor, traffic accident, fracture surgery, urinary retention, renal failure, urethroplasty, urinary retention, forelimb trauma Number of animals: 15 Activity improved: 11/13 (2, not evaluated; 2 unchanged) GPT value improved: 3/3 GOT value improved: 2/2 BUN value improved: 2/2 CRE value improved: 2/2 CPK value improved: 1/1 ALP value improved: 1/1 WBC value improved: 1/1 (decreased) PLT value improved: 2/2 Body temperature decreased: 2/2

[3] = animals which did not ingest food

## GSS (n-octanoyl) FLSPEHQKLQQRKESKKPPAKLQPR (GSS(Octanoyl)FLSPEHQKLQQRKESKKPPAKLQPR; listed as Canis familiaris) [ghrelin, chemically synthesized, lyophilized]
[1]; no surgery, 24 animals
  BUN: significance (p) of improvement after vs before administration: p < 0.05
  GPT: significance (p) of improvement after vs before administration: p < 0.05
  Vigor: significance (p) of improvement after vs before administration: p < 0.01
  WBC: significance (p) of improvement after vs before administration: p < 0.05
[1]; surgery, 70 animals
  BUN: significance (p) of improvement after vs before administration: p < 0.05
  Body temperature: significance (p) of improvement after vs before administration: p < 0.01
  CRE: significance (p) of improvement after vs before administration: p < 0.05
  Degree of anger: significance (p) of improvement after vs before administration: p < 0.01
  GOT: significance (p) of improvement after vs before administration: p < 0.01
  GPT: significance (p) of improvement after vs before administration: p < 0.01
  PLT: significance (p) of improvement after vs before administration: p < 0.05
  Respiratory rate: significance (p) of improvement after vs before administration: p < 0.05
  Vigor: significance (p) of improvement after vs before administration: p < 0.01
[2]; 15 animals which did not ingest food, 2 not evaluated, 2 unchanged
  Activity improved: animals improved/animals evaluated: 11/13
[2]; [3]
  ALP value improved: animals improved/animals evaluated: 1/1
  BUN value improved: animals improved/animals evaluated: 2/2
  Body temperature decreased: animals improved/animals evaluated: 2/2
  CPK value improved: animals improved/animals evaluated: 1/1
  CRE value improved: animals improved/animals evaluated: 2/2
  GOT value improved: animals improved/animals evaluated: 2/2
  GPT value improved: animals improved/animals evaluated: 3/3
  PLT value improved: animals improved/animals evaluated: 2/2
  WBC value improved (decreased): animals improved/animals evaluated: 1/1
